{"source": "patent US10328075B2", "about": "“Method of treatment and compounds for use therein” (Baker Heart and Diabetes Institute, priority 2015, dated 2019)", "assay_type_in_all_cases": "cell-based", "key": {"hFPR1": {"molecular_target": "T1, hFPR1 (Homo sapiens, UniProt P21462)", "T1 construct": "expressed in transfected cells", "T1 sequence (P21462 1-350)": "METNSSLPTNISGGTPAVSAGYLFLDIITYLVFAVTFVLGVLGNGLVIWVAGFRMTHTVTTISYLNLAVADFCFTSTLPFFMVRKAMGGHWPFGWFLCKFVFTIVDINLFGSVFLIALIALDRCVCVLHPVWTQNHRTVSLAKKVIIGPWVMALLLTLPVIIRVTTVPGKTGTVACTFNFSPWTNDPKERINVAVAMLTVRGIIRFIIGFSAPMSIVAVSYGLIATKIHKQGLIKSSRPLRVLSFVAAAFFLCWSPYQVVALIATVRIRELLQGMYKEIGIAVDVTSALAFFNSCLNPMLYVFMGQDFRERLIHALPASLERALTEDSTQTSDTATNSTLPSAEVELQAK", "assay": "ERK1/2 phosphorylation (AlphaScreen SureFire) in hFPR1-FlpIn-CHO cells", "source_text": "(§1) cDNDA construct and generation of stable cell lines: cDNA in pcDNA3.1^+ encoding the human formyl peptide receptors (FPR) subtypes, hFPR1, hFPR2 and hFPR3 was obtained from Invitrogen. The sequences for 3 hFPR receptors were amplified by PCR and cloned into the Gateway entry vector, pDONR202™, using the BP clonase enzyme mix, according to the manufactures' instructions (Invitrogen Inc, Carlsbad, Calif., USA). All hFPR receptors constructs in pDONR201™ were subsequently transfected into the pEF5/FRT/V5/dest vector using the LR clonase enzyme mix (Invitrogen). Receptor constructs (pEF5/FRT/V5/dest) were used to transfect FIp-In CHO cells as described previously (Valant C et al., PNAS, 2014). Cells were selected using 500 μg/mL hydromycin to generate cell lines stably expressing each receptor construct. Cells were maintained and cultured in high glucose DMEM supplemented with 10% FBS, 16 mM HEPES and 500 μg/mL hydromycin at 37° C. under a humidified atmosphere containing 5% CO2.\n(§2) In the various assays described below, cells were plated into 96-well transparent cell culture plates at 4×10^4 cells per well, cultured overnight in serum-free media at 37° C. in 5% CO2.\n(§3) Measurement of extracellular signal regulated kinase 1 and 2 phosphorylation (pERK1/2): Initial ERK1/2 phosphorylation at Thr202/Tyr204 time-course experiments were performed to determine the time at which ERK1/2 phosphorylation was maximal after stimulation by each agonist. Cells were seeded onto transparent 96-well cell culture plates at 4×10^4 cells per well. After 6 h, cells were washed once with PBS, and then incubated in serum-free DMEM overnight, to allow FBS-stimulated phosphorylated ERK1/2 levels to subside. […] 10% (v/v) FBS was used as a positive control, with vehicle controls also included. The reaction was terminated by removal of study drugs and lysis of cells with 100 μL of SureFire lysis buffer (TGR Biosciences). Cell were lysed in SureFire lysis buffer and transferred to 384-well opaque proxiplates. Under low-light conditions, a 1:120 (v:v) dilution of AlphaScreen beads (both acceptor and donor):Surefire reaction buffer was prepared, which was mixed with the activation buffer in a ratio of 6:1 (v:v), respectively. Plates were incubated in the dark at 37° C. for 1 h before the fluorescence signal was measured by a Fusion-α plate reader (PerkinElmer Life and Analytical Sciences, Foster city, CA, USA) with standard AlphaScreen settings. Data were normalized to the maximal response elicited by 10% (v/v) FBS at the same time point.\n(§4) Receptor mediated pERK1/2 levels were determined using the AlphaScreen™ ERK1/2 SureFire™ kit, as described previously (Keov, P et al., 2014). For all experiments, 10% FBS was used as internal positive control to stimulate pERK1/2, and which the maximum responses were used for normalization of data, whilst vehicle was used as negative control.\n(§5) Data analysis: All data were analysed using GraphPad Prism 6.0 (GraphPad Software, San Deigo, Calif., USA). Where appropriate, concentration-response curves were fitted to derive the maximal agonist effect (Emax), and the ligand potency estimate (pEC50), where Emax is the maximal possible response of the system (not the agonist), basal is the basal level of response in the absence of agonist, and pEC50 is the negative logarithm of the agonist concentration that gives a response halfway between Emax and basal.\n(§6) In the present study, FIp-IN CHO cells and Gateway plasmid were obtained from Invitrogen Inc (Carlsbad, Calif., USA). The sequences for all 3 known human FPRs (hFPR1, hFPR2 and hFPR3) were amplified by PCR and cloned into the Gateway entry vector, pDONR202TM, using the BP clonase enzyme mix, according to the manufacturers' instructions. The hFPR pDONR201TM constructs were subsequently transfected into the pEF5/FRT/V5/dest vector using the LR clonase enzyme mix (Invitrogen)."}, "hFPR2": {"molecular_target": "T2, hFPR2 (Homo sapiens, UniProt P25090)", "T2 construct": "expressed in transfected cells", "T2 sequence (P25090 1-351)": "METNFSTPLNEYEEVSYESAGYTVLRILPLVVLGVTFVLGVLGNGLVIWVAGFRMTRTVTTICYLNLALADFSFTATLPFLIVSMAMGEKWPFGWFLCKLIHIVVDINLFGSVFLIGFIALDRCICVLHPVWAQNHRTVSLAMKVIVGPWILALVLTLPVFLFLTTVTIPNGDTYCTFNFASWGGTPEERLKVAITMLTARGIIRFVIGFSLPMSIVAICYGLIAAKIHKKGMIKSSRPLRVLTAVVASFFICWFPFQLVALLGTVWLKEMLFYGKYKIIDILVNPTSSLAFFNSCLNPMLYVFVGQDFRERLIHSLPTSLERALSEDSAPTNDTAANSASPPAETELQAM", "assay": "ERK1/2 phosphorylation (AlphaScreen SureFire) in hFPR2-FlpIn-CHO cells", "source_text": "as §1, §2, §3, §4, §5, §6"}, "hFPR3": {"molecular_target": "T3, hFPR3 (Homo sapiens, UniProt P25089)", "T3 construct": "expressed in transfected cells", "T3 sequence (P25089 1-353)": "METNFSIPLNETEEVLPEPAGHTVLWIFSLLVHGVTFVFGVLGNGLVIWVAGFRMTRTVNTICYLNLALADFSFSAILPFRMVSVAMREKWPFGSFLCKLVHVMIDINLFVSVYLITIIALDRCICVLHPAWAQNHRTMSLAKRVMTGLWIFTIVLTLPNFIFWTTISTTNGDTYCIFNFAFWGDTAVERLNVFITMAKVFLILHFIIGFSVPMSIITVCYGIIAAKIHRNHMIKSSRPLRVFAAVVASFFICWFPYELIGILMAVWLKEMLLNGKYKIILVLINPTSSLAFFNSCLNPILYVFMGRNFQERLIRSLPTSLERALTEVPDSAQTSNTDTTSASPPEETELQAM", "assay": "Agonist responses (ERK1/2 phosphorylation) in hFPR3-CHO cells", "source_text": "as §1, with “Cells were maintained and cultured in high glucose DMEM supplemented with 10% FBS, 16 mM HEPES and 500 μg/mL hydromycin at 37° C. under a humidified atmosphere containing 5% CO2.” left out\nMeasurement of extracellular signal regulated kinase 1 and 2 phosphorylation (pERK1/2): Initial ERK1/2 phosphorylation at Thr202/Tyr204 time-course experiments were performed to determine the time at which ERK1/2 phosphorylation was maximal after stimulation by each agonist. […] Plates were incubated in the dark at 37° C. for 1 h before the fluorescence signal was measured by a Fusion-α plate reader (PerkinElmer Life and Analytical Sciences, Foster city, CA, USA) with standard AlphaScreen settings. […]"}}, "note": "Entries after “also recorded” stand apart in the source; their conditions may differ."}
{"smiles": "CCCCC[C@H](O)/C=C/C=C\\C=C\\C=C\\[C@@H](O)[C@@H](O)CCCC(=O)O", "note": "[LxA4, lipoxin-A4]", "values": [{"measurement": "ERK-phosphorylation at hFPR1 (in words)", "setting": "hFPR1", "value": "failed to stimulate; also recorded: without effect"}, {"measurement": "ERK-phosphorylation at hFPR2 (in words)", "setting": "hFPR2", "value": "failed to stimulate; also recorded: without effect"}, {"measurement": "Agonist response (ERK-phosphorylation) in hFPR3-CHO cells", "setting": "hFPR3", "value": "failed to stimulate; also recorded: without effect"}]}
